Numbers after ± are expanded uncertainties.
experiment: Boiling temperature at pressure P; settings: 101 kPa; Liquid; Ebulliometric method (Recirculating still)

First: CC(=O)CC(C)C [4-methylpentan-2-one]
Second: CCOC(C)=O [ethyl acetate]
The “Boiling temperature at pressure P” value of the first is higher: 117.4 ± 1.6 °C for the first, 77.1 ± 1.6 °C for the second.

Compared with O=Cc1ccco1 [2-furaldehyde], OC1CCCC1 [cyclopentanol] is lower in “Boiling temperature at pressure P” value: 162 ± 1.6 °C for the first, 139.4 ± 1.6 °C for the second.

— the NIST ThermoML archive (doi:10.1016/j.fluid.2014.07.011)
